Legend:
[1] = Highest frequency of moderate liver toxicity observed during clinical trials, expressed as a percentage. [column '% BIOL' in source]; conditions: human
[2] = Highest frequency of acute liver toxicity observed during clinical trials, expressed as a percentage. [column '% AIGUE' in source]; conditions: human
[3] = Comments (NB not yet translated). [column 'COMMENTAIRES' in source]; conditions: human
[4] = Times to onset, minimal and maximal, observed in the indexed observations. [column 'DELAI' in source]; conditions: human
[5] = human, serum
[6] = human, serum; remark: listed apart in the source
[7] = human
[8] = human; remark: listed apart in the source
[9] = human; remark: listed apart in the source
[10] = human, serum, 4383 h
[11] = human; remark: listed apart in the source
[12] = human; remark: listed apart in the source
[13] = human; remark: listed apart in the source
[14] = human; remark: listed apart in the source
[15] = human; remark: listed apart in the source
[16] = human; remark: listed apart in the source
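Throughout, for Hepatotoxicity (association with vascular disease): count of indexed literature references reporting vascular liver injury in humans, e.g. peliosis hepatitis, hepatic veno-occlusive disease or Budd-Chiari syndrome.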
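Throughout, for Hepatotoxicity (benign tumour): value is a count of indexed literature references citing a benign tumour confirmed by histopathology.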
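Throughout, for Hepatotoxicity (choleostasis): human cholestatic liver injury, shown by histopathology or by peak ALT or AST elevation over alkaline phosphatase ratio below 2, value counts indexed literature reports.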
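Throughout, for Hepatotoxicity (chronic liver disease): chronic liver injury confirmed by histopathology or persistently raised serum aminotransferase activity beyond 6 months, value given as the count of indexed literature references.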
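Throughout, for Hepatotoxicity (cirrhosis): value is a count of indexed literature references reporting cirrhosis confirmed by histopathology.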
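Throughout, for Hepatotoxicity (cytolytic): human cytolytic liver injury, shown by histopathology or by a ratio above 5 of peak ALT or AST elevation to alkaline phosphatase elevation, value counts indexed references.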
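Throughout, for Hepatotoxicity (granulomatous hepatitis): value is a count of indexed literature references reporting granulomatous liver disease confirmed by histopathology.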
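Throughout, for Hepatotoxicity (malignant tumour): malignant tumour confirmed by histopathology, value gives the count of indexed literature references reporting it.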
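Throughout, for Hepatotoxicity (severe hepatitis): human clinical data: severe hepatitis, meaning potentially life-threatening liver failure or clinically observed cases, the value counts how many indexed literature references report it.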
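Throughout, for Hepatotoxicity (steatosis): steatosis confirmed by histopathology, value is the count of indexed references.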

With `C[C@]12COC(=O)C[C@@H]1CC[C@@H]1[C@@H]2CC[C@@]2(C)[C@H]1CC[C@]2(C)O` [OXANDROLONE] as the compound, how does the “Hepatotoxicity (moderate)” value [1] read?
The value was 0%.

And the “Hepatotoxicity (acute)” value [2]?
Its value is 0%.

What about the “Hepatotoxicity (comment)” value [3] of the same compound?
The value was “HNF”.

And the “Hepatotoxicity (time to onset)” value [4]?
Its value is 6 months.

And the “Hepatotoxicity (moderate)” value [5]?
Its value is 0.

What about the “Hepatotoxicity (acute)” value [6] of the same compound?
The value was 2.

What about the “Hepatotoxicity (cytolytic)” value [7] of the same compound?
Its value is 0.

What about the “Hepatotoxicity (choleostasis)” value [8] of the same compound?
The value was 2.

What about the “Hepatotoxicity (severe hepatitis)” value [9] of the same compound?
The value was 0.

And the “Hepatotoxicity (chronic liver disease)” value [10]?
Its value is 0.

And the “Hepatotoxicity (cirrhosis)” value [11]?
The value was 0.

And the “Hepatotoxicity (granulomatous hepatitis)” value [12]?
The value was 0.

And the “Hepatotoxicity (association with vascular disease)” value [13]?
The value was 0.

And the “Hepatotoxicity (steatosis)” value [14]?
The value was 0.

What about the “Hepatotoxicity (malignant tumour)” value [15] of the same compound?
Its value is 0.

And the “Hepatotoxicity (benign tumour)” value [16]?
The value was 1.

For `CCCCC1C(=O)N(c2ccccc2)N(c2ccc(O)cc2)C1=O` (stereo not given) [OXYPHENBUTAZONE ANHYDROUS], which “Hepatotoxicity (moderate)” value [1] is on record?
The value was 0%.

What about the “Hepatotoxicity (acute)” value [2] of the same compound?
Its value is 0%.

What about the “Hepatotoxicity (comment)” value [3] of the same compound?
Its value is “RC/PHENYLBUTAZONE”.

And the “Hepatotoxicity (time to onset)” value [4]?
The value was 1 week - 2 months.

And the “Hepatotoxicity (moderate)” value [5]?
The value was 3.

What about the “Hepatotoxicity (acute)” value [6] of the same compound?
The value was 9.

What about the “Hepatotoxicity (cytolytic)” value [7] of the same compound?
Its value is 4.

And the “Hepatotoxicity (choleostasis)” value [8]?
The value was 3.

And the “Hepatotoxicity (severe hepatitis)” value [9]?
The value was 3.

And the “Hepatotoxicity (chronic liver disease)” value [10]?
Its value is 0.

And the “Hepatotoxicity (cirrhosis)” value [11]?
The value was 1.

And the “Hepatotoxicity (granulomatous hepatitis)” value [12]?
The value was 5.

What about the “Hepatotoxicity (association with vascular disease)” value [13] of the same compound?
Its value is 0.

What about the “Hepatotoxicity (steatosis)” value [14] of the same compound?
Its value is 1.

What about the “Hepatotoxicity (malignant tumour)” value [15] of the same compound?
Its value is 0.

What about the “Hepatotoxicity (benign tumour)” value [16] of the same compound?
Its value is 0.

For `C1CCC(C(CC2CCCCN2)C2CCCCC2)CC1` (stereo not given) [PERHEXILINE], which “Hepatotoxicity (moderate)” value [1] is on record?
The value was 30%.

What about the “Hepatotoxicity (acute)” value [2] of the same compound?
Its value is 0%.

And the “Hepatotoxicity (comment)” value [3]?
The value was “I/AMIODARONE/BEZAFIBRATE/PAROXETINE INCLUSIONLAMELLAIRE”.

And the “Hepatotoxicity (time to onset)” value [4]?
The value was 3 weeks - 12 years.

What about the “Hepatotoxicity (moderate)” value [5] of the same compound?
Its value is 18.

And the “Hepatotoxicity (acute)” value [6]?
The value was 11.

What about the “Hepatotoxicity (cytolytic)” value [7] of the same compound?
The value was 9.

What about the “Hepatotoxicity (choleostasis)” value [8] of the same compound?
Its value is 2.

And the “Hepatotoxicity (severe hepatitis)” value [9]?
Its value is 5.

What about the “Hepatotoxicity (chronic liver disease)” value [10] of the same compound?
The value was 1.

And the “Hepatotoxicity (cirrhosis)” value [11]?
The value was 22.

What about the “Hepatotoxicity (granulomatous hepatitis)” value [12] of the same compound?
The value was 1.

And the “Hepatotoxicity (association with vascular disease)” value [13]?
The value was 0.

And the “Hepatotoxicity (steatosis)” value [14]?
Its value is 10.

What about the “Hepatotoxicity (malignant tumour)” value [15] of the same compound?
The value was 0.

And the “Hepatotoxicity (benign tumour)” value [16]?
The value was 0.

What does the source list for `CC(Cc1ccccc1)NN` (stereo not given) [PHENIPRAZINE]?
Hepatotoxicity (moderate) [1]: 0%; Hepatotoxicity (acute) [2]: 0%; Hepatotoxicity (comment) [3]: RC/NIALAMIDE/IPRONIAZIDE; Hepatotoxicity (time to onset) [4]: 2 weeks - 7 months; Hepatotoxicity (moderate) [5]: 0; Hepatotoxicity (acute) [6]: 7; Hepatotoxicity (cytolytic) [7]: 7; Hepatotoxicity (choleostasis) [8]: 0; Hepatotoxicity (severe hepatitis) [9]: 5; Hepatotoxicity (chronic liver disease) [10]: 0; Hepatotoxicity (cirrhosis) [11]: 0; Hepatotoxicity (granulomatous hepatitis) [12]: 0; Hepatotoxicity (association with vascular disease) [13]: 0; Hepatotoxicity (steatosis) [14]: 0; Hepatotoxicity (malignant tumour) [15]: 0; Hepatotoxicity (benign tumour) [16]: 0

What does the source list for `CCc1ccc(CCOc2ccc(CC3SC(=O)NC3=O)cc2)nc1` (stereo not given) [PIOGLITAZONE]?
Hepatotoxicity (moderate) [1]: 0.4%; Hepatotoxicity (acute) [2]: 0%; Hepatotoxicity (comment) [3]: CHOLESTASE_PROLONGEE PERICHOLANGIOLITE CHOLANGIOLITE; Hepatotoxicity (time to onset) [4]: 23 days - 7 months; Hepatotoxicity (moderate) [5]: 3; Hepatotoxicity (acute) [6]: 5; Hepatotoxicity (cytolytic) [7]: 3; Hepatotoxicity (choleostasis) [8]: 3; Hepatotoxicity (severe hepatitis) [9]: 1; Hepatotoxicity (chronic liver disease) [10]: 0; Hepatotoxicity (cirrhosis) [11]: 0; Hepatotoxicity (granulomatous hepatitis) [12]: 0; Hepatotoxicity (association with vascular disease) [13]: 0; Hepatotoxicity (steatosis) [14]: 0; Hepatotoxicity (malignant tumour) [15]: 0; Hepatotoxicity (benign tumour) [16]: 0
